We go through ten compounds from US10947227B2, “Tricyclic heterocyclic compounds as sting activators” (Incyte Corporation, priority 2018, dated 2021).

A value given as a limit tells only on which side of the number the result lay.

The subject of one test is IRF3 activation in THP-1 Dual Cells. The test is described as follows: IRF3 activation assay in THP-1 Dual Cells (QUANTI-Blue readout). It is filed as cell-based. Conditions: Homo sapiens, THP1-Dual, 24 h, Table 2, 24 hours incubation. Summed up:
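THP-1 Dual cells (100,000/well) were incubated with serially diluted compounds 24 h at 37 °C. […]; EC50 from percent control activity versus log concentration.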
Compound `CCn1nc(C)cc1C(=O)Nc1nc2cc(C(N)=O)cc(OCCCOC)c2n1C/C=C/Cn1c2nc(-c3cc(C)nn3CC)ncc2c2cc(C(N)=O)cc(OCCCNC(=O)OCCC(=O)O)c21` [Example 51, (E)-3-(3-(6-carbamoyl-9-(4-(5-carbamoyl-2-(1-ethyl-3-methyl-1H-pyrazole-5-carboxamido)-7-(3-methoxypropoxy)-1H-benzo[d]imidazol-1-yl)but-2-enyl)-2-(1-ethyl-3-methyl-1H-pyrazol-5-yl)-9H-pyrimido[4,5-b]indol-8-yloxy)propylcarbamoyloxy)propanoic Acid] registered an EC50 of under 0.05 µM. As for `CCn1nc(C)cc1C(=O)Nc1nc2cc(C(N)=O)cc(OCCCOC)c2n1C/C=C/Cn1c2nc(-c3cc(C)nn3CC)ncc2c2cc(C(N)=O)cc(OCCCOC(=O)NCCC(=O)O)c21` [Example 52, (E)-3-((3-(6-carbamoyl-9-(4-(5-carbamoyl-2-(1-ethyl-3-methyl-1H-pyrazole-5-carboxamido)-7-(3-methoxypropoxy)-1H-benzo[d]imidazol-1-yl)but-2-enyl)-2-(1-ethyl-3-methyl-1H-pyrazol-5-yl)-9H-pyrimido[4,5-b]indol-8-yloxy)propoxy)carbonylamino)propanoic Acid], the half-maximal effective concentration (EC50) fell in the range of 0.05 to 0.2 µM. `CCn1nc(C)cc1C(=O)Nc1nc2cc(C(N)=O)cc(OCCCOC)c2n1C/C=C/Cn1c2nc(-c3cc(C)nn3CC)ncc2c2cc(C(N)=O)cc(OCCOCCOCCC(=O)O)c21` [Example 53, (E)-3-(2-(2-(6-carbamoyl-9-(4-(5-carbamoyl-2-(1-ethyl-3-methyl-1H-pyrazole-5-carboxamido)-7-(3-methoxypropoxy)-1H-benzo[d]imidazol-1-yl)but-2-enyl)-2-(1-ethyl-3-methyl-1H-pyrazol-5-yl)-9H-pyrimido[4,5-b]indol-8-yloxy)ethoxy)ethoxy)propanoic Acid] returned a concentration giving a half-maximal response (EC50) of 0.05 to 0.2 µM.

As to `CCn1nc(C)cc1C(=O)Nc1nc2cc(C(N)=O)cc(OCCCOC)c2n1C/C=C/Cn1c2nc(-c3cc(C)nn3CC)ncc2c2cc(C(N)=O)cc(OCCOCCOCCOCCC(=O)O)c21` [Example 54, (E)-3-(2-(2-(2-(6-carbamoyl-9-(4-(5-carbamoyl-2-(1-ethyl-3-methyl-1H-pyrazole-5-carboxamido)-7-(3-methoxypropoxy)-1H-benzo[d]imidazol-1-yl)but-2-enyl)-2-(1-ethyl-3-methyl-1H-pyrazol-5-yl)-9H-pyrimido[4,5-b]indol-8-yloxy)ethoxy)ethoxy)ethoxy)propanoic Acid], the half-maximal effective concentration (EC50) was in the range of 0.05 to 0.2 µM.

The compound `CCn1nc(C)cc1C(=O)Nc1nc2cc(C(N)=O)cc(OC)c2n1C/C=C/Cn1c2nc(-c3cc(C)nn3CC)ncc2c2cc(C(N)=O)cc(OCCC3CCN(CCCC(=O)O)CC3)c21` [Example 55, (E)-4-(4-(2-(6-carbamoyl-9-(4-(5-carbamoyl-2-(1-ethyl-3-methyl-1H-pyrazole-5-carboxamido)-7-methoxy-1H-benzo[d]imidazol-1-yl)but-2-enyl)-2-(1-ethyl-3-methyl-1H-pyrazol-5-yl)-9H-pyrimido[4,5-b]indol-8-yloxy)ethyl)piperidin-1-yl)butanoic Acid] had an EC50 of 0.05 to 0.2 µM. Compound `CCn1nc(C)cc1C(=O)Nc1nc2cc(C(N)=O)cc(OC)c2n1C/C=C/Cn1c2nc(-c3cc(C)nn3CC)ncc2c2cc(C(N)=O)cc(OCCC3CCN(C(=O)OCC(=O)O)CC3)c21` [Example 56, (E)-2-(4-(2-(6-carbamoyl-9-(4-(5-carbamoyl-2-(1-ethyl-3-methyl-1H-pyrazole-5-carboxamido)-7-methoxy-1H-benzo[d]imidazol-1-yl)but-2-enyl)-2-(1-ethyl-3-methyl-1H-pyrazol-5-yl)-9H-pyrimido[4,5-b]indol-8-yloxy)ethyl)piperidine-1-carbonyloxy)acetic Acid] had an EC50 of 0.05 to 0.2 µM.

Take `CCn1nc(C)cc1C(=O)Nc1nc2cc(C(N)=O)cc(OCCCO)c2n1C/C=C/Cn1c2nc(-c3cc(C)nn3CC)ncc2c2cc(C(N)=O)cc(OCCCOC(=O)NCCC(=O)O)c21` [Example 57, (E)-3-((3-(6-carbamoyl-9-(4-(5-carbamoyl-2-(1-ethyl-3-methyl-1H-pyrazole-5-carboxamido)-7-(3-hydroxypropoxy)-1H-benzo[d]imidazol-1-yl)but-2-enyl)-2-(1-ethyl-3-methyl-1H-pyrazol-5-yl)-9H-pyrimido[4,5-b]indol-8-yloxy)propoxy)carbonylamino)propanoic Acid]: the concentration for a half-maximal effect (EC50) fell in the range of 0.05 to 0.2 µM. In turn, `CCn1nc(C)cc1C(=O)Nc1nc2cc(C(N)=O)cc(OCCCOC(=O)NCCC(=O)O)c2n1C/C=C/Cn1c2nc(-c3cc(C)nn3CC)ncc2c2cc(C(N)=O)cc(OCCOCCOCCC(=O)O)c21` [Example 58, (E)-3-(((3-((5-carbamoyl-1-(4-(6-carbamoyl-8-(2-(2-(2-carboxyethoxy)ethoxy)ethoxy)-2-(1-ethyl-3-methyl-1H-pyrazol-5-yl)-9H-pyrimido[4,5-b]indol-9-yl)but-2-en-1-yl)-2-(1-ethyl-3-methyl-1H-pyrazole-5-carboxamido)-1H-benzo[d]imidazol-7-yl)oxy)propoxy)carbonyl)amino)propanoic Acid] returned a 50% effective concentration (EC50) of 0.2 to 0.5 µM. For the compound `CCn1nc(C)cc1C(=O)Nc1nc2cc(C(N)=O)cc(OCCCNC(=O)CCC(=O)O)c2n1C/C=C/Cn1c2nc(-c3cc(C)nn3CC)ncc2c2cc(C(N)=O)cc(OCCCOC)c21` [Example 59, (E)-4-((3-((5-carbamoyl-1-(4-(6-carbamoyl-2-(1-ethyl-3-methyl-1H-pyrazol-5-yl)-8-(3-methoxypropoxy)-9H-pyrimido[4,5-b]indol-9-yl)but-2-en-1-yl)-2-(1-ethyl-3-methyl-1H-pyrazole-5-carboxamido)-1H-benzo[d]imidazol-7-yl)oxy)propyl)amino)-4-oxobutanoic Acid], the EC50 fell in the range of 0.05 to 0.2 µM.

The target of another test is human STING (Homo sapiens, UniProt Q86WV6).
human STING, sequence (Q86WV6 whole entry H232R): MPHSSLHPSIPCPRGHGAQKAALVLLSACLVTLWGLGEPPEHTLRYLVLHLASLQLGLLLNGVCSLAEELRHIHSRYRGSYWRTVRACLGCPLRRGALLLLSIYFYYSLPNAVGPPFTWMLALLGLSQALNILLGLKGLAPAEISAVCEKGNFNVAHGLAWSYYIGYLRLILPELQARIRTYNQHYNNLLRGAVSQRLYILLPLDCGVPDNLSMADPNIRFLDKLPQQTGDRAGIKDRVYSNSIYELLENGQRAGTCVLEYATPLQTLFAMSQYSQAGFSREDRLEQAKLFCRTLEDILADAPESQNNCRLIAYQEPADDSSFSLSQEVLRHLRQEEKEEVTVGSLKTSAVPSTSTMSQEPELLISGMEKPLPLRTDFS
Test: not given
Conditions: cited from earlier work.
Turning to `Cc1ccc2c(=O)c3cccc(CC(=O)O)c3oc2c1C` [DMXAA, 5,6-dimethylxanthenone-4-acetic acid], the “bind and activate human STING” value is “not human STING”.

The next test relates to established tumors.
Test: not given
The note with it: preclinical mouse models; cited from earlier work.
With `Cc1ccc2c(=O)c3cccc(CC(=O)O)c3oc2c1C` [DMXAA, 5,6-dimethylxanthenone-4-acetic acid], the anti-tumor activity entry was “excellent anti-tumor activity”.

The EC50 is the midpoint of the concentration-response curve. High values mean a need for much substance, low ones an effect from little substance.
